# How the values were obtained:
# [1] = system: immortalized human pleural mesothelial cells (ATCC CRL-9444); assay: IL-6 ELISA in TNF-α-stimulated mesothelial cells; type: cell-based
# Method: Expression of inflammatory cytokines was induced by applying 1 or 10 ng/ml of TNF-α to cultured mesothelial cells. Briefly, immortalized human pleural mesothelial cells (ATCC CRL-9444) were grown in Medium199 with Earle's BSS, 0.75 mM L-glutamine (Mediatech Inc., Manassas, Va.), 1.25 g/l sodium bicarbonate (Sigma), 3.3 nM epidermal growth factor (EGF) (MBL International, Woburn, Mass.), 40 nM hydrocortisone (Sigma), 870 nM insulin (MBL International), 20 mM HEPES (Sigma), trace elements mixture B (Mediatech Inc., Waltham, Mass.), 10% fetal bovine serum (FBS) (Hyclone), and 1% penicillin/streptomycin (Mediatech Inc., Waltham, Mass.). […] Human mesothelial cells were treated with two different concentrations (1 and 10 ng/mL) of TNF-α for 2, 6, 12, and 24 hours (data not shown). […] Without TNF-α stimulation, mesothelial cells made negligible amounts of IL-6. […] In subsequent experiments designed to determine whether the MMI-0100 peptide ([…]; SEQ ID NO: 1) could reduce TNF-α induced IL-6 expression, both 1 and 10 ng/mL of TNF-α were selected as stimuli. 10 ng/mL of TNF-α is regarded as more physiologically relevant for mesothelial cells.
# Prior to cytokine and/or inhibitor treatment, cells were allowed to acclimate in serum-free media consisting of only Medium199 with Earle's BSS, 0.75 mM L-glutamine, 1.25 g/l sodium bicarbonate, 20 mM HEPES, trace elements mixture B (Mediatech Inc., Waltham, Mass.), and 1% penicillin/streptomycin (Mediatech Inc., Waltham, Mass.) for 24 hours. […] Average concentration of IL-6 (pg/ml per 10^5 cells) at each time was determined by cytokine-specific ELISA.
# [2] = system: MK2; details: known small molecule inhibitor of MK2; ATP competitive; cited from earlier work
# [3] = system: human saphenous vein (HSV); assay: Muscle bath: sodium nitroprusside-induced relaxation of human saphenous vein; type: cell-based; details: 50 or 100 μM pretreatment; data not shown
# Method: De-identified, discarded segments of human saphenous vein (HSV) were collected from consented patients undergoing coronary artery or peripheral vascular bypass surgeries. HSV segments were stored in a saline solution until the end of the surgical procedure, at which time they were placed in cold transplant harvest buffer (100 mM potassium lactobionate, 25 mM KH2PO4, 5 mM MgSO4, 30 mM Raffinose, 5 mM Adenosine, 3 mM Glutathione, 1 mM Allopurinol, 50 g/L Hydroxyethyl starch, pH 7.4). The vessels were used within 24 hours of harvest. Using sterile technique, HSV segments were transferred to a 60-mm Petri dish under a sterile hood. The edges (0.5 mm) of each segment were removed with a blade and excess adventitial tissue and fat removed with minimal manipulation. HSV segments were cut into consecutive rings of approximately 1.0 mm in width to be utilized for organ culture or muscle bath experiments. Two rings from each segment were immediately fixed in 10% formalin at 37° C. for 30 min to obtain pre-culture intimal thickening measurements.
# In preparation for testing vein segment functional viability, HSV rings were weighed and their lengths recorded. To focus on smooth muscle responses, the endothelium was mechanically denuded by rolling the luminal surface of each ring at the tip of a fine vascular forceps before suspension in a muscle bath containing a bicarbonate buffer (120 mM NaCl, 4.7 mM KCl, 1.0 mM MgSO4, 1.0 mM NaH2PO4, 10 mM glucose, 1.5 mM CaCl2, and 25 mM […], pH 7.4) equilibrated with 95% O2 and 5% CO2 at 37° C. The rings were stretched and the length progressively adjusted until maximal tension was obtained. […] Rings were maintained at a resting tension of 1 g, which produces maximal responses to contractile agonists as previously determined, and equilibrated for 2 hours in buffer. […]
# HSV rings were first contracted with 110 mM KCl (with equimolar replacement of NaCl in bicarbonate buffer) and the generated force was measured. […] Rings were relaxed with a cumulative log dose of sodium nitroprusside (SNP), a nitric oxide donor, and the force generated was recorded. […] Rings were then incubated with either buffer alone or buffer plus 100 μM of MMI-0100 ([…] (SEQ ID NO: 1)) for 2 hours, followed by treatment with the same doses of PE and SNP, and the forces generated again recorded. Measured force was normalized for ring weight and length and percent relaxation was calculated; force generated with 10^−6 M of PE was set as 0% relaxation.
# The enhancing effect of MMI-0100 ([…]; SEQ ID NO: 1) on smooth muscle relaxation was examined by pre-treating harvested human saphenous vein (HSV) with MMI-0100 ([…]; SEQ ID NO: 1) before SNP treatment. […] Percentage of relaxation at 0, 0.01, 0.1, and 1.0 μM of SNP was measured. […]
# [4] = system: PKA; details: AIP 1 μM; cited from earlier work
# [5] = molecular target: CaMKIV (Homo sapiens, UniProt Q16566); details: AIP 1 μM; cited from earlier work
# Chain of CaMKIV (Q16566 whole entry, species assumed): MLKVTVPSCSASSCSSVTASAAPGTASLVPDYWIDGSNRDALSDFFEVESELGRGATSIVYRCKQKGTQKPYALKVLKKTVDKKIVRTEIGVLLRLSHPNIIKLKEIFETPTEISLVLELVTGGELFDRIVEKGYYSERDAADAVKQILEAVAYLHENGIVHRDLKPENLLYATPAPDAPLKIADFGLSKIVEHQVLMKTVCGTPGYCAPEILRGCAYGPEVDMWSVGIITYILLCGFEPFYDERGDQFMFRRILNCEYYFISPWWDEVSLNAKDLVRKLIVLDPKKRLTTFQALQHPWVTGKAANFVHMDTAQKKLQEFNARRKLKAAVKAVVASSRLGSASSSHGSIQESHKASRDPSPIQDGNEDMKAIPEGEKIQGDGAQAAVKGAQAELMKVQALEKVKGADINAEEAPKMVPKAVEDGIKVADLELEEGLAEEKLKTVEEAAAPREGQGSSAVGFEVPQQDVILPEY
# [6] = system: Ca2+/calmodulin-dependent protein kinase II (CaMKII); details: cited from earlier work
# [7] = system: PKC; details: AIP 1 μM; cited from earlier work
compound,measurement,setting,value
"CC(=O)c1c(O)c(C)c(O)c(Cc2c(O)c3c(c(C(=O)/C=C/c4ccccc4)c2O)OC(C)(C)C=C3)c1O [Rottlerin, reference compound]",IL-6 expression,"[1]; TNF-α 1 ng/mL, 6 hrs",significantly increased IL-6 expression above that induced by TNF-α alone
same,IL-6 expression,"[1]; TNF-α 1 ng/mL, MMI-0100 1000 or 3000 μM, 6, 12, 24 hours",ineffective in reducing IL-6 expression
same,IL-6 expression,"[1]; TNF-α 10 ng/mL, 6, 12, 24 hours",reduced IL-6 expression only at a higher dose (1 μM) and only at twenty-four hours after treatment
same,IC50,[2],5 µM
"YARAAARQARA (mammal) [PTD peptide, control peptide (transduction domain, PTD peptide), reference compound]",relaxation response vs untreated control,[3],no significant difference in relaxation response
autocamtide-2 related inhibitory peptide [AIP],PKA activity,[4],not affected
same,CaMKIV activity,[5],not affected
same,CaMKII activity,[6]; AIP 1 μM,inhibited completely
same,IC50,[6],0.1 µM
same,PKC activity,[7],not affected
